From PMC4667731 (Journal of medicinal chemistry, 2015)
“Also recorded” adds a separate entry of the source.

Assays:
[1] = Serum stability studies of prodrugs; type: in vitro ADME; conditions: Figure S8
[2] = Pharmacokinetics in Sprague-Dawley rats; conditions: rat; for detection in serum samples after oral dose of prodrug: p.o. 25 mg/kg
[3] = Stability under acidic and alkaline conditions; type: physicochemical; conditions: 24 h at 37 °C
in vitro = conditions: human, Caco-2, […]
TB infection = conditions: dosed intraperitoneally; cited from earlier work
M. tuberculosis H37Rv = M. tuberculosis H37Rv MIC assay under iron-deficient conditions; type: cell-based; conditions: Mycobacterium tuberculosis, pH 6.6
[4] = Estimated pKa of the acyl-sulfonyl linker; type: physicochemical
Aqueous solubility = type: physicochemical
[5] = test system: UDP-gluguronosyl transferase (UDPGT); test: Glucuronidation study, human liver microsomes; conditions: UDPGA
[6] = test system: UDP-gluguronosyl transferase (UDPGT); test: Glucuronidation study, rat liver microsomes; conditions: UDPGA

Q: For “2′, 3′ -O-di-Acetyl-5′ -O-[N-(2-hydroxybenzoyl)sulfamoyl]adenosine [Compound 2]”, which “serum stability (acetate cleavage)” value [1] is on record?
A: Its value is “slowly hydrolyzed”.

Q: What about the “detection in serum samples after oral dose of prodrug” value [2] of the same compound?
A: The value was “neither of the parent compounds was detected”.

Q: Which “serum stability (acetate cleavage)” value [1] does the source give for “5′-O-[N-(2-Acetoxybenzoyl)sulfamoyl]-2′, 3′-O-di-acetyladenosine [Compound 3]” here?
A: Its value is “rapidly cleaved”.

Q: And the “detection in serum samples after oral dose of prodrug” value ([2]; 25 mg/kg)?
A: The value was “neither of the parent compounds was detected; also recorded: only a negligible amount of 1 could be detected”.

Q: With `CCN(CC)CC.Nc1ncnc2c1ncn2[C@@H]1O[C@H](COS(=O)(=O)NC(=O)c2ccccc2O)[C@@H](O)[C@H]1O` [Compound 1, 5′-O-[N-(salicyl)sulfamoyl]adenosine] as the compound, how does the degradation ([3]; acidic (pH 1)) read?
A: Its degradation is “less than 5%”.

Q: What about the degradation ([3]; alkaline (pH 12)) of the same compound?
A: Its degradation is “less than 5%”.

Q: And the Papp A→B (in vitro)?
A: Its Papp A→B is 1.2 ×10⁻⁶ cm/s.

Q: What about the “efficacy in acute murine TB infection model” value (TB infection) of the same compound?
A: The value was “effective”.

Q: And the MIC (M. tuberculosis H37Rv)?
A: Its MIC is 0.2 µg/mL.

Q: And the pKa [4]?
A: The pKa was about 3.

Q: For `CCN(CC)CC.Nc1ncnc2c1ncn2[C@@H]1O[C@H](CNS(=O)(=O)NC(=O)c2ccccc2O)[C@@H](O)[C@H]1O` [Compound 4, 5′-N-[N-(2-Hydroxybenzoyl)sulfamoyl]amino-5′ -deoxyadenosine triethylammonium salt], which MIC (M. tuberculosis H37Rv) is on record?
A: The MIC was 0.11 µg/mL.

Q: What about the pKa [4] of the same compound?
A: Its pKa is about 5.

Q: What about the Cmax ([2]; female, Sprague-Dawley, in vivo, po, 25 mg/kg) of the same compound?
A: Its Cmax is 1400 nM.

Q: What does the source list for `CCN(CC)CC.Nc1ccc(C(=O)NS(=O)(=O)NC[C@H]2O[C@@H](n3cnc4c(N)ncnc43)[C@H](O)[C@@H]2O)c(O)c1` [Compound 5, 5′-N-[N-(4-Amino-2-hydroxybenzoyl)sulfamoyl]amino-5′-deoxyadenosine]?
A: MIC (M. tuberculosis H37Rv): 1.81 µg/mL; pKa [4]: ~6

Q: With `CCN(CC)CC.O=C(NS(=O)(=O)NC[C@H]1O[C@@H](n2cnc3c(NC4CC4)ncnc32)[C@H](O)[C@@H]1O)c1ccccc1O` [Compound 6, N^6-Cyclopropyl-5′-deoxy-5′-N-[N-(2-hydroxybenzoyl)sulfamoyl]aminoadenosine triethylammonium salt] as the compound, how does the MIC (M. tuberculosis H37Rv) read?
A: The MIC was 0.06 µg/mL.

Q: With `CCN(CC)CC.O=C(NS(=O)(=O)NC[C@H]1O[C@@H](n2cnc3c(NC4CC4)nc(-c4ccccc4)nc32)[C@H](O)[C@@H]1O)c1ccccc1O` [Compound 7, N^6-Cyclopropyl-5′-deoxy-5′-N-[N-(2-hydroxybenzoyl)sulfamoyl]amino-2-phenyladenosine triethylammonium salt] as the compound, how does the “aqueous solubility” value (Aqueous solubility) read?
A: Its value is “poor aqueous solubility”.

Q: And the MIC (M. tuberculosis H37Rv)?
A: Its MIC is 4.27 µg/mL.

Q: Which MIC (M. tuberculosis H37Rv) does the source give for `CCN(CC)CC.Nc1ncnc2c1ncn2[C@@H]1O[C@H](CNS(=O)(=O)NC(=O)c2ccccc2O)[C@@H](O)[C@H]1F` [Compound 8, 5′-N-[N-(2-Hydroxybenzoyl)sulfamoyl]amino-2′, 5′-dideoxy-2′-fluoroadenosine triethylammonium salt] here?
A: The MIC was 0.11 µg/mL.

Q: For `CCN(CC)CC.Nc1nc(-c2ccccc2)nc2c1ncn2[C@@H]1O[C@H](CNS(=O)(=O)NC(=O)c2ccccc2O)[C@@H](O)[C@H]1F` [Compound 9, 2′, 5′-Dideoxy-2′-fluoro-5′-N-[N-(2-hydroxybenzoyl)sulfamoyl]amino-2-phenyladenosine triethylammonium salt], which MIC (M. tuberculosis H37Rv) is on record?
A: Its MIC is 1 µg/mL.

Q: Which MIC (M. tuberculosis H37Rv) does the source give for `CCN(CC)CC.Nc1ncnc2c1ncn2[C@@H]1O[C@H](CNS(=O)(=O)NC(=O)c2ccccc2O)C[C@H]1F` [Compound 10, 2′, 3′, 5′-Trideoxy-5′-N-[N-(2-hydroxybenzoyl)sulfamoyl]amino-2′-fluoroadenosine triethylammonium salt] here?
A: Its MIC is 0.43 µg/mL.

Q: With `COc1c(C)c2c(c(O)c1C/C=C(\C)CCC(=O)O)C(=O)OC2` [MPA, Mycophenolic Acid] as the compound, how does the “glucuronidated at 60 min” value [5] read?
A: Its value is 85%.

Q: What about the “glucuronidated at 60 min” value [6] of the same compound?
A: The value was 30%.
